From patent EP1173432B9, “PIPERIDINE-INDOLE COMPOUNDS HAVING 5-HT6 AFFINITY” (NPS Allelix Corp., priority 1999, dated 2000)
Where a name gives a salt, the structure may show the parent alone.

How the values were obtained:
[1] = target: T1, human 5-HT6 receptor (Homo sapiens, UniProt P50406); assay: Binding affinity for the 5-HT6 receptor (3H-LSD displacement, membranes of recombinant cells); details: 3H-LSD radioligand, 60 minute incubation at 37 °C
T1 construct: expressed in transfected cells; host or cells: recombinant cells
Method: All of the compounds of the invention were evaluated using cell types receptive specifically to the 5-HT6 receptor (for cloning and characterization of the human 5-HT6 receptor see Kohen, et al. J. Neurochemistry, 66, 1996: 47-56). […] After a 60 minute incubation at 37 °C, the incubation was terminated by vacuum filtration. The filters were washed with buffer and the filters were counted for radioactivity using liquid scintillation spectrometry. The affinity of the test compound for the 5-HT6 receptor was determined by computer-assisted analysis of the data and determining the amount of the compound necessary to inhibit 50% of the binding of the radioligand to the receptor. Concentrations ranging from 10^-11 M to 10^-5 M of the test compound were evaluated.

[2] = target: T2, human 5-HT2C (Homo sapiens, UniProt P28335); assay: Binding selectivity for 5-HT6 relative to the 5-HT2C receptor; details: selectivity 5-HT6 over 5-HT2C
T2 sequence (P28335 33-458): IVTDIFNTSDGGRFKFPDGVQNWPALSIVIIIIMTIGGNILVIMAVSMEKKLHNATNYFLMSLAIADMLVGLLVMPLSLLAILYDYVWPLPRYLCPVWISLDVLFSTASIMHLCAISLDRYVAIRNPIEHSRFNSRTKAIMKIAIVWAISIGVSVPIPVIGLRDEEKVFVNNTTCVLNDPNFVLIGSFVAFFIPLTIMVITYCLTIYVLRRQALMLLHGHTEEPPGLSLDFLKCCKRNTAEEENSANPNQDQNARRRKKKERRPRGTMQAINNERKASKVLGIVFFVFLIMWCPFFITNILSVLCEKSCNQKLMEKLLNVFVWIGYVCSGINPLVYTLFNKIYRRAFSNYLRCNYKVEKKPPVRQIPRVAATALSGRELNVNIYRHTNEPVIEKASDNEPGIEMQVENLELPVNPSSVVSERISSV

[3] = target: 5-HT7 receptors (Homo sapiens, UniProt P34969); assay: Binding selectivity for 5-HT6 relative to the 5-HT7 receptor; details: selectivity 5-HT6 over 5-HT7
Chain of 5-HT7 receptors (P34969 whole entry): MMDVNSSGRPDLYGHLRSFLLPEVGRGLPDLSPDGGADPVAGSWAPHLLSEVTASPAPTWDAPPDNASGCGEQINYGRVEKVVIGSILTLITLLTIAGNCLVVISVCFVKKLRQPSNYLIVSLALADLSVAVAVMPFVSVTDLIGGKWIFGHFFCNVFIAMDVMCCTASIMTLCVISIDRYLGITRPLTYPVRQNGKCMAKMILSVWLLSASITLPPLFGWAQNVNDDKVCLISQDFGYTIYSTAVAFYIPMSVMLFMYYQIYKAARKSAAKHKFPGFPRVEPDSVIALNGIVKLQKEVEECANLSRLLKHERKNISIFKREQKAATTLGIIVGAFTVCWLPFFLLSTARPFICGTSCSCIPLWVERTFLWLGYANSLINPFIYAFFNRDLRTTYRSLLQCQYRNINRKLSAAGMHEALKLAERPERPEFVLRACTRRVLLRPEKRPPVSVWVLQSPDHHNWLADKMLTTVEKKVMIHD

T1 sequence (P50406 whole entry): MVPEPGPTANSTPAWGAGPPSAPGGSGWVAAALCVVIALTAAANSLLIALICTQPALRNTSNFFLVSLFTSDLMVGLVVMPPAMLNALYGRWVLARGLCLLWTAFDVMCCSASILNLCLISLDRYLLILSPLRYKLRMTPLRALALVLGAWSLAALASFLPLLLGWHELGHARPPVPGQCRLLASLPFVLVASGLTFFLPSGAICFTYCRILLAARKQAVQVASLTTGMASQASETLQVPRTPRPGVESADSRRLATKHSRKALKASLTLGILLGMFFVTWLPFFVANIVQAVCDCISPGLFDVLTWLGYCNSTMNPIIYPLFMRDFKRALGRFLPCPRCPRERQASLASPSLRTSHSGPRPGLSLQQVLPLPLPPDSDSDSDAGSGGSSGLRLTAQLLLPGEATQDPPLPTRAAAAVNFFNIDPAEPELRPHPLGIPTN

| SMILES | Ki [1] [nM] | fold greater affinity for the human 5-HT6 receptor relative to the human 5-HT2C receptor [2] [fold] | fold greater affinity for the human 5-HT6 receptor relative to the human 5-HT7 receptor [3] [fold] |
| --- | --- | --- | --- |
| Cc1ccc(S(=O)(=O)n2cc(C3=CCN(C)CC3)c3cc(F)ccc32)cc1 [Example 3b, 5-Fluoro-1-(4-methylphenylsulfonyl)-3-(1-methyl-1,2,3,6-tetrahydro-4-pyridinyl)indole] | ≤ 5 | ≥ 60 | ≥ 60 |
| CN1CC=C(c2cn(S(=O)(=O)c3ccccc3)c3ccccc23)CC1 [Example 4a, 3-(1-Methyl-1,2,3,6-tetrahydro-4-pyridinyl)-1-phenylsulfonylindole] | ≤ 5 |  |  |
| CN1CC=C(c2cn(S(=O)(=O)c3cccc4ccccc34)c3c(F)cc(F)cc23)CC1 [Example 4aaa, 5,7-Difluoro-3-(1-methyl-1,2,3,6-tetrahydro-4-pyridinyl)-1-(1-naphthylsulfonyl)indole] | ≤ 5 |  |  |
| COc1ccc(S(=O)(=O)n2cc(C3=CCN(C)CC3)c3ccccc32)cc1 [Example 4b, 1-(4-Methoxyphenylsulfonyl)-3-(1-methyl-1,2,3,6-tetrahydro-4-pyridinyl)indole] | ≤ 50 |  |  |
| CN1CC=C(c2cn(S(=O)(=O)c3ccc(Cl)cc3)c3ccc(F)cc23)CC1 [Example 4bb, 1-(4-Chlorophenylsulfonyl)-5-fluoro-3-(1-methyl-1,2,3,6-tetrahydro-4-pyridinyl)indole] | ≤ 5 | ≥ 60 | ≥ 60 |
| CN1CC=C(c2cn(S(=O)(=O)c3ccc(F)cc3)c3ccccc23)CC1 [Example 4c, 1-(4-Fluorophenylsulfonyl)-3-(1-methyl-1,2,3,6-tetrahydro-4-pyridinyl)indole] | ≤ 5 |  |  |
| CN1CC=C(c2cn(S(=O)(=O)c3ccc(Br)cc3)c3ccc(F)cc23)CC1 [Example 4d, 1-(4-Bromophenylsulfonyl)-5-fluoro-3-(1-methyl-1,2,3,6-tetrahydro-4-pyridinyl)indole] | ≤ 50 |  |  |
| CN1CC=C(c2cn(S(=O)(=O)c3cc(Cl)ccc3Cl)c3ccc(F)cc23)CC1 [Example 4e, 5-Fluoro-1-(2,5-dichlorophenylsulfonyl)-3-(1-methyl-1,2,3,6-tetrahydro-4-pyridinyl)indole] | ≤ 50 |  |  |
| CN1CC=C(c2cn(S(=O)(=O)c3cccc4ccccc34)c3ccc(F)cc23)CC1 [Example 4ee, 5-Fluoro-3-(1-methyl-1,2,3,6-tetrahydro-4-pyridinyl)-1-(1-naphthylsulfonyl)indole] | ≤ 5 |  |  |
| CN1CC=C(c2cn(S(=O)(=O)c3ccc(Cl)c([N+](=O)[O-])c3)c3ccc(F)cc23)CC1 [Example 4f, 1-(4-Chloro-3-nitrophenylsulfonyl)-5-fluoro-3-(1-methyl-1,2,3,6-tetrahydro-4-pyridinyl)indole] | ≤ 50 |  |  |
| CN1CC=C(c2cn(S(=O)(=O)c3ccc4ccccc4c3)c3ccc(F)cc23)CC1 [Example 4ff, 5-Fluoro-3-(1-methyl-1,2,3,6-tetrahydro-4-pyridinyl)-1-(2-naphthylsulfonyl)indole] |  | ≥ 60 | ≥ 60 |
| Cc1cc(C)c(S(=O)(=O)n2cc(C3=CCN(C)CC3)c3cc(F)ccc32)c(C)c1 [Example 4g, 5-Fluoro-3-(1-methyl-1,2,3,6-tetrahydro-4-pyridinyl)-1-(2,4,6-trimethylphenylsulfonyl)indole] | ≤ 50 |  |  |
| CN1CC=C(c2cn(S(=O)(=O)c3ccc(F)cc3)c3ccc(Cl)cc23)CC1 [Example 4gg, 5-Chloro-1-(4-fluorophenylsulfonyl)-3-(1-methyl-1,2,3,6-tetrahydro-4-pyridinyl)indole] | ≤ 5 |  |  |
| Cc1ccc(S(=O)(=O)n2cc(C3=CCN(C)CC3)c3cc(OC4CCCCC4)ccc32)cc1 [Example 4i, 5-Cyclohexyloxy-1-(4-methylphenylsulfonyl)-3-(1-methyl-1,2,3,6-tetrahydro-4-pyridinyl)indole] | ≤ 50 | ≥ 60 | ≥ 60 |
| CN1CC=C(c2cn(S(=O)(=O)c3ccc(Cl)cc3)c3ccc(OC(F)(F)F)cc23)CC1 [Example 4jj, 1-(4-Chlorophenylsulfonyl)-3-(1-methyl-1,2,3,6-tetrahydro-4-pyridinyl)-5-trifluoromethoxyindole] | ≤ 5 |  |  |
| CN1CC=C(c2cn(S(=O)(=O)c3ccc(F)cc3)c3cc(Br)ccc23)CC1 [Example 4k, 6-Bromo-1-(4-fluorophenylsulfonyl)-3-(1-methyl-1,2,3,6-tetrahydro-4-pyridinyl)-indole] | ≤ 50 |  |  |
| Cc1ccc(S(=O)(=O)n2cc(C3=CCN(C)CC3)c3cc(OC(F)(F)F)ccc32)cc1 [Example 4kk, 1-(4-Methylphenylsulfonyl)-3-(1-methyl-1,2,3,6-tetrahydro-4-pyridinyl)-5-trifluoromethoxyindole] | ≤ 5 |  |  |
| Cc1ccc(S(=O)(=O)n2cc(C3=CCN(C)CC3)c3cc(C(F)(F)F)ccc32)cc1 [Example 4qq, 1-(4-Methylphenylsulfonyl)-3-(1-methyl-1,2,3,6-tetrahydro-4-pyridinyl)-5-trifluoromethylindole hydrochloride] | ≤ 50 |  |  |
| Cc1ccc(S(=O)(=O)n2cc(C3=CCN(C)CC3)c3cc(F)cc(F)c32)cc1 [Example 4ww, 5,7-Difluoro-3-(1-methyl-1,2,3,6-tetrahydro-4-pyridinyl)-1-(4-methylphenylsulfonyl)indole] | ≤ 5 |  |  |
| CN1CC=C(c2cn(S(=O)(=O)c3ccccc3Br)c3ccc(F)cc23)CC1 [Example 4z, 1-(2-Bromophenylsulfonyl)-5-fluoro-3-(1-methyl-1,2.3,6-tetrahydro-4-pyridinyl)indole] | ≤ 5 | ≥ 60 | ≥ 60 |
| CN1CC=C(c2cn(S(=O)(=O)c3ccc(Cl)cc3)c3c(F)cc(F)cc23)CC1 [Example 4zz, 1-(4-Chlorophenylsulfonyl)-5,7-difluoro-3-(1-methyl-1,2,3,6-tetrahydro-4-pyridinyl)indole] | ≤ 5 |  |  |
